The target in data set [1] is T1, Protein-glutamine gamma-glutamyltransferase (Homo sapiens, UniProt P21980).
T1 sequence (P21980 whole entry): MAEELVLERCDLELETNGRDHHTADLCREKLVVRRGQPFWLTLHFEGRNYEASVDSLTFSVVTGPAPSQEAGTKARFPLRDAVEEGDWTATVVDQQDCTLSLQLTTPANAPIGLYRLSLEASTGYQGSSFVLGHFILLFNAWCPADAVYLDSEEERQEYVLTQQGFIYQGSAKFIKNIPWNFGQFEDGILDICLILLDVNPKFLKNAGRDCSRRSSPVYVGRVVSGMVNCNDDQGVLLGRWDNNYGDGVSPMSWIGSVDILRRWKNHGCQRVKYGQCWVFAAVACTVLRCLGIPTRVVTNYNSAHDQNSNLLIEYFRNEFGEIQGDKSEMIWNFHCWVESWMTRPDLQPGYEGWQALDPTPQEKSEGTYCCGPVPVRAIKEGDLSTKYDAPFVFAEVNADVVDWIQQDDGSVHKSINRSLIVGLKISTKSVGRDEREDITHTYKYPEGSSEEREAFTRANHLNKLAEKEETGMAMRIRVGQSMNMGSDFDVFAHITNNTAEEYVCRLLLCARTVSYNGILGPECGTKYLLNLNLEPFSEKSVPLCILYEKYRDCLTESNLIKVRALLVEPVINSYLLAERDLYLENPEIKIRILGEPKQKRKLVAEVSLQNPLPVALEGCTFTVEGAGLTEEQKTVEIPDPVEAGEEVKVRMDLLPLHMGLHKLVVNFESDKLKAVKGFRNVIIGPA
The data set is described as follows: Inhibition of human TGase 2 using R-I-Cad/DMC as substrate preincubated for 5 mins followed by substrate addition measured at 30 secs interval over 900 secs by fluorescence anisotropy assay. (In general: Polarisation of emitted light reports the rotation of a fluorescent probe.)

The nature of data set [2]: Inhibition of guinea pig TGase 2 using F-Cad/DMC as substrate preincubated for 30 mins followed by substrate addition measured at 30 secs interval over 900 secs by fluorescence anisotropy assay. Further details: species or system Cavia porcellus.
The nature of data set [3]: Membrane retention, RM of the compound. It is filed as physicochemical.
Data set [4] can be described thus: Chromatographic hydrophobicity index in immobilized artificial membrane at pH 7.4 by HPLC method. The class given is ADME, cell membranes.
Data set [5] can be described thus: in vitro. The following applies: PAMPA.
Description: Effective permeability of the compound by PAMPA assay
Data set [6] deals with T1, Protein-glutamine gamma-glutamyltransferase. The data set is described as follows: Reversible inhibition of human TGase 2 using Z-Glu(HMC)-Gly-OH as substrate measured at 20 secs interval over 900 secs by fluorimetric assay.
Data set [7] can be described thus: n-octanol-phosphate buffer partition coefficient, log D of compound at pH 7.4 by 19F NMR analysis. It is filed as physicochemical.
Data set [8] concerns the target T1, Protein-glutamine gamma-glutamyltransferase. The data set is described as follows: Irreversible inhibition of human TGase 2 using Z-Glu(HMC)-Gly-OH as substrate measured at 20 secs interval over 900 secs by fluorimetric assay.
Data set [9] in a line: Metabolic stability in mouse liver microsomes assessed as parent compound remaining at 100 uM measured after 60 mins by HPLC-UV analysis. To be noted: microsomes, 1 h, 100 µM. It is filed as ADME, microsome. A general note: Liver microsomes are a subcellular fraction often used to study metabolism.

Each structure is given as a SMILES string.

A word on the IC50: it is the point on the concentration scale where inhibition reaches its midpoint. A low value points to higher potency. By Papp is commonly meant a coefficient for how fast a substance crosses the barrier. A low value points to slow passage. On to `C=CC(=O)NCCCC[C@H](NC(=O)Cc1ccccc1)C(=O)N1CCN(c2cccc(-c3ccccc3)n2)CC1`, for which the IC50 in data set [1] is 0.2 µM; in data set [2], 0.15 µM. In [3], this compound gave a Rm of 64%. In data set [4], the CHI is given as 39. The Papp in data set [5] is 21.9 ×10⁻⁶ cm/s. Also, the Ki in data set [6] stood at 7.76 µM.

For orientation: logD means lipophilicity at a set pH, counting ionised and neutral species. Low readings indicate lower lipophilicity, high ones higher lipophilicity. As to `C=CC(=O)NCCCC[C@H](NC(=O)Cc1ccccc1)C(=O)N1CCN(Cc2ccc(F)cc2)CC1`, the logD in data set [7] was determined as 2.65. This compound yielded a Rm in data set [3] of 12%. Besides, the CHI in data set [4] was found to be 32. The Ki in [8] came to 7.6 µM. In addition, in [5], the Papp came out at 10.3 ×10⁻⁶ cm/s.

In turn, `C=CC(=O)NCCCC[C@H](NC(=O)Cc1ccc(F)cc1)C(=O)N1CCN(c2ccc([N+](=O)[O-])nc2)CC1` displayed a logD in data set [7] of 1.85. Further, the Rm in [3] is recorded as 9%. Besides, the CHI in data set [4] worked out at 28.3. Besides, the Stability entry in data set [9] was “Stable”. In [8], this compound registered a Ki of 5.02 µM. In data set [5], this compound yielded a Papp of 1.97 ×10⁻⁶ cm/s.

Take `C=CC(=O)NCCCC[C@H](NC(=O)Cc1ccccc1)C(=O)N1CCN(c2ccc(C(F)(F)F)nc2)CC1`: the logD in data set [7] was 2.13. This compound also gave a Rm in data set [3] of 11%. Also, in [4], the CHI is 31.8. The Stability result in data set [9] is “Stable”. This compound also registered a Ki in data set [8] of 6.77 µM. The compound also had a Papp in [5] of 8.98 ×10⁻⁶ cm/s.

The compound `C=CC(=O)NCCCC[C@H](NC(=O)Cc1ccccc1)C(=O)N1CCN(c2cccc(C(C)(C)C)n2)CC1` had an IC50 in data set [1] of 0.17 µM. In [3], this compound displayed a Rm of 69%. In addition, in [4], the CHI was found to be 39.5. The compound also showed a Papp in data set [5] of 21.9 ×10⁻⁶ cm/s. The compound further yielded a Ki in [6] of 3.5 µM.

As for `C=CC(=O)NCCCC[C@H](NC(=O)Cc1ccccc1)C(=O)N1CCN(c2ccc(F)nc2)CC1`, the logD in data set [7] was determined as 1.66. Further, in data set [3], the Rm was 4%. This compound gave a CHI in data set [4] of 26.8. Besides, the Ki in [8] was determined as 10.9 µM. For the same compound, the Papp in data set [5] is 3.54 ×10⁻⁶ cm/s.

As for `C=CC(=O)NCCCC[C@H](NC(=O)Cc1ccccc1)C(=O)N1CCN(c2cccc(Br)n2)CC1`, the IC50 in [1] was determined as 0.22 µM; in [2], 0.2 µM. In data set [6], this compound gave a Ki of 5.65 µM.

`C=CC(=O)NCCCC[C@H](NC(=O)Cc1ccccc1)C(=O)N1CCN(c2ccc(C(N)=O)nc2)CC1` registered a Ki in data set [8] of 5.72 µM.

On to `NS(=O)(=O)c1cc2c(cc1Cl)NCNS2(=O)=O` [HYDROCHLOROTHIAZIDE], for which the Papp in [5] worked out at 0.06 ×10⁻⁶ cm/s.

On to `C=CC(=O)NCCCC[C@H](NC(=O)Cc1ccccc1)C(=O)N1CCN(c2cccnc2)CC1`, for which the Ki in [8] came out at 2.6 µM.

As for `C=CC(=O)NCCCC[C@@H](NC(=O)Cc1ccccc1)C(=O)N1CCN(c2cccc(C)n2)CC1`, in data set [2], the IC50 was 0.79 µM.

With `CCN(CC)c1ccc2c(-c3ccccc3C(=O)N3CCC(C(=O)NCCCCCN)CC3)c3ccc(=[N+](CC)CC)cc-3oc2c1`, the Ki in [1] came out at 6.81 µM; in [2] it was 7.14 µM.

In data set [8], `C=CC(=O)NCCCC[C@H](NC(=O)Cc1ccccc1)C(=O)N1CCN(c2cccc(C)c2)CC1` displayed a Ki of 7.55 µM.

`C=CC(=O)NCCCC[C@H](NC(=O)Cc1ccccc1F)C(=O)N1CCN(c2cccc([N+](=O)[O-])n2)CC1` returned a logD in data set [7] of 2.25. In [3], this compound registered a Rm of 12%. Besides, the CHI in data set [4] is given as 30.7. This compound also registered a Ki in data set [8] of 1.98 µM. The compound further returned a Papp in data set [5] of 8.74 ×10⁻⁶ cm/s.

For the compound `C=CC(=O)NCCCC[C@H](NC(=O)Cc1ccc(F)cc1)C(=O)N1CCN(c2cccc(C)n2)CC1`, the logD in data set [7] worked out at 0.36. In data set [3], this compound returned a Rm of 10%. The CHI in data set [4] was determined as 32.4. Also, the Papp in data set [5] came out at 11.4 ×10⁻⁶ cm/s.

In turn, `CCC(=O)NCCCC[C@H](NC(=O)Cc1ccccc1)C(=O)N1CCN(c2ccc([N+](=O)[O-])nc2)CC1` gave a Ki in [6] of 15 µM.

The compound `C=CC(=O)NCCCC[C@H](NC(=O)Cc1ccc(I)cc1)C(=O)N1CCN(c2cccc(C)n2)CC1` came in with an IC50 in data set [2] of 0.16 µM.

Turning to `C=CC(=O)NCCCC[C@H](NC(=O)Cc1ccccc1)C(=O)N1CCN(c2cccc(I)n2)CC1`, in data set [1], the IC50 is 0.14 µM. The same compound returned a Ki in [6] of 2.92 µM.

`C=CC(=O)NCCCC[C@H](NC(=O)Cc1cccc(F)c1)C(=O)N1CCN(c2cccc(C)n2)CC1`: the Rm in data set [3] came to 24%. The compound also came in with a CHI in data set [4] of 30.9. For the same compound, the Papp in data set [5] was found to be 12.5 ×10⁻⁶ cm/s.

As for `NCCCCCNC(=S)Nc1ccc2c(c1)C(=O)OC21c2ccc(O)cc2Oc2cc(O)ccc21`, in data set [2], the Ki came to 9.15 µM.

As for `C=CC(=O)NCCCC[C@H](NC(=O)Cc1ccccc1)C(=O)N1CCN(c2ccccn2)CC1`, the figures for the IC50 in data set [1] and in data set [2] were 0.34 µM and 0.31 µM, respectively. For the same compound, in [9], the Stability result is listed as “Unstable”. Further, the Ki in [6] stood at 8.42 µM.

Compound `C=CC(=O)NCCCC[C@H](NC(=O)C(F)(F)F)C(=O)N1CCN(c2cccc(-c3ccccc3)n2)CC1` came in with a Ki in data set [8] of 14.3 µM.

Turning to `C=CC(=O)NCCCC[C@H](NC(=O)Cc1ccccc1)C(=O)N1CCN(C(=O)c2ccc([N+](=O)[O-])cc2)CC1`, in [8], the Ki worked out at 7.71 µM.

In [5], `COCCc1ccc(OCC(O)CNC(C)C)cc1` (centres undefined) [METOPROLOL] registered a Papp of 4.04 ×10⁻⁶ cm/s.

On to `C=CC(=O)NCCCC[C@H](NC(=O)Cc1ccccc1)C(=O)N1CCN(c2ccc([N+](=O)[O-])cc2)CC1`, for which the Ki in data set [8] was found to be 2.52 µM.

As to `C=CC(=O)NCCCC[C@H](NC(=O)Cc1ccccc1)C(=O)N1CCN(c2cccc(OCCF)n2)CC1`, the results for the IC50 in data set [1] and in data set [2] were 0.39 µM and 0.27 µM, respectively. The Ki in [6] came out at 7.32 µM.

In turn, `C=CC(=O)NCCCC[C@H](NC(=O)c1ccc(F)cc1)C(=O)N1CCN(c2cccc(C)n2)CC1` returned a logD in data set [7] of 0.28. Besides, the Rm in data set [3] is listed as 16%. In [4], this compound displayed a CHI of 31.4. The compound also came in with a Papp in data set [5] of 12.7 ×10⁻⁶ cm/s.

In turn, `CCC(=O)NCCCC[C@H](NC(=O)Cc1ccccc1)C(=O)N1CCN(c2cccc(C)n2)CC1` displayed a Ki in [6] of 64.3 µM.

On to `C=CC(=O)NCCCC[C@H](NC(=O)Cc1ccccc1)C(=O)N1CCN(S(=O)(=O)c2cccc3c(N(C)C)cccc23)CC1`, for which, in [3], the Rm was found to be 38%. The CHI in [4] is 37.7. The compound further displayed a Papp in [5] of 7.68 ×10⁻⁶ cm/s.

For `C=CC(=O)NCCCC[C@H](NC(=O)Cc1ccccc1F)C(=O)N1CCN(c2cccc(C)n2)CC1`, the Rm in [3] came out at 21%. This compound gave a CHI in [4] of 30.1. The Ki in data set [8] is 4.49 µM. In [5], this compound yielded a Papp of 11.4 ×10⁻⁶ cm/s.

Regarding `C=CC(=O)NCCCC[C@H](NC(=O)Cc1ccccc1)C(=O)N1CCN(c2cccc(Cl)n2)CC1`, the IC50 in data set [1] came out at 0.18 µM; in [2] it was 0.16 µM. For the same compound, the Ki in data set [6] came out at 4.43 µM.

Turning to `C=CC(=O)NCCCC[C@H](NC(=O)Cc1cccs1)C(=O)N1CCN(c2cccc(C)n2)CC1`, the Ki in data set [8] amounted to 5.56 µM.

As for `C=CC(=O)NCCCC[C@H](NC(=O)Nc1ccc(F)cc1)C(=O)N1CCN(c2cccc(C)n2)CC1`, in data set [7], the logD turned out to be 0.47. Also, the IC50 in data set [2] was 0.46 µM. This compound also registered a Rm in [3] of 11%. This compound yielded a CHI in data set [4] of 34.3. Besides, the Papp in [5] came to 12.5 ×10⁻⁶ cm/s.

Compound `C=CC(=O)NCCCC[C@H](NC(=O)Nc1ccccc1)C(=O)N1CCN(c2ccc([N+](=O)[O-])nc2)CC1` gave a Ki in data set [8] of 7.96 µM.

As for `C=CC(=O)NCCCC[C@H](NC(=O)Cc1ccccc1)C(=O)N1CCN(c2ccc(C(=O)OC)nc2)CC1`, the Ki in data set [8] turned out to be 7.12 µM.

The compound `C=CC(=O)NCCCC[C@H](NC(=O)Cc1ccccc1)C(=O)N1CCN(c2ccncc2)CC1` gave a Rm in data set [3] of 31%. The compound also gave a CHI in data set [4] of 25.4. In addition, the Stability result in data set [9] is reported as “Stable”. Also, in data set [8], the Ki is 2.55 µM. This compound also showed a Papp in data set [5] of 0.51 ×10⁻⁶ cm/s.

Source of the values: ChEMBL document CHEMBL4219231, “Nε-Acryloyllysine Piperazides as Irreversible Inhibitors of Transglutaminase 2: Synthesis, Structure-Activity Relationships, and Pharmacokinetic Profiling” (J Med Chem, 2018).
